Among the data in article doi:10.1101/2024.10.11.617762v1 (biorxiv, 2024) are IC50 and Kd values, retold here.

SMILES strings stand for the structures.

The target in assay [1] is T1, N-CTD (C-terminal domain of the SARS-CoV-2 nucleocapsid (N) protein) (Severe acute respiratory syndrome coronavirus 2, UniProt P0DTC9). The assay is described as follows: fluorescence intensity inhibition of FAM-RNA binding. The assay is classed as biochemical.
Assay [2] addresses T1, N-CTD (C-terminal domain of the SARS-CoV-2 nucleocapsid (N) protein). Put plainly: biochemical. The assay is classed as binding.

One may read the IC50 as the concentration that gives 50% inhibition. Lower therefore signals greater potency. The term Kd denotes a measure of binding affinity in units of concentration. Lower therefore signals a tighter complex.

`CC1(C)S[C@@H]2[C@H](NC(=O)[C@H](N)c3ccccc3)C(=O)N2[C@H]1C(=O)O` [ampicillin] gave an IC50 in assay [1] of 10.4 ± 0.2 µM. Also, the Kd in assay [2] was found to be 28 ± 1.2 µM.

Regarding `CO/N=C(\C(=O)N[C@@H]1C(=O)N2C(C(=O)O)=C(CSc3nc(=O)c(=O)[nH]n3C)CS[C@H]12)c1csc(N)n1` [ceftriaxone], the IC50 in assay [1] is 12.4 ± 2.4 µM. In assay [2], the Kd is 18 ± 1.3 µM.

`CO/N=C(\C(=O)N[C@@H]1C(=O)N2C(C(=O)O)=C(COC(N)=O)CS[C@H]12)c1ccco1` [cefuroxime] yielded an IC50 in assay [1] of 15.4 ± 2.8 µM. In addition, the Kd in assay [2] was determined as 55 ± 4.2 µM.
